According to PubChem BioAssay AID1033 (Sanford-Burnham Center for Chemical Genomics, 2008):
Activity calls are given as the source filed them. No rule for the calls is given here.

target: Chaperone protein DnaK (Escherichia coli (strain K12)) (UniProt P0A6Y8); test: binders of DnaK substrate-binding domain, biophysical, NMR, chaperone (AID 1033); conditions: Purified DnaK SBD, NMR ligand binding
Sequence (P0A6Y8 whole entry, looked up, the tested form may be a part): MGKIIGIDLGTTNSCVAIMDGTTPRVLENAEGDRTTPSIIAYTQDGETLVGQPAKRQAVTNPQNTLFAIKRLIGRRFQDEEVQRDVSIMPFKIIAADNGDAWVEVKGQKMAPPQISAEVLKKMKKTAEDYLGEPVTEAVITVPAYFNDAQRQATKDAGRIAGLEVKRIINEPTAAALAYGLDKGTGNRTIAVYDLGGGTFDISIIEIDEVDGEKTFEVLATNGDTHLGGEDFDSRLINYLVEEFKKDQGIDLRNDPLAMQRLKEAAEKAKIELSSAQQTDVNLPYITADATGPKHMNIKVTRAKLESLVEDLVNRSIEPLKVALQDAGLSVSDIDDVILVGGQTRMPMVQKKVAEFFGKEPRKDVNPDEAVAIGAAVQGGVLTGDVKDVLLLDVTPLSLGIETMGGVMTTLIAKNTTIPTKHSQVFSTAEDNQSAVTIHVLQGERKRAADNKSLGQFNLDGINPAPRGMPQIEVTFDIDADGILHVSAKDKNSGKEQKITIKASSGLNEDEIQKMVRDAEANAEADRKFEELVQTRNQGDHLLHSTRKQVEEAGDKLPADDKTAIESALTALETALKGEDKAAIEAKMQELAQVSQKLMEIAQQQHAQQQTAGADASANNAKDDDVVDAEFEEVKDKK

Structure (SMILES)	Kd
COc1ccccc1NC(=O)/C=N/O	> 4 mM (inactive)
O=C(Nc1ccncc1)c1cncc(Br)c1	> 4 mM (inactive)
CCN1C(=O)c2c(C)nc3ccccc3c2C1=O	> 4 mM (inactive)
Cc1[nH]c2ccccc2c1C(=O)CSc1ncn[nH]1	> 4 mM (inactive)
O=C(O)CSc1cccc2cccnc12	> 4 mM (inactive)
NCC(N)C(=O)c1ccccc1 (stereo unspecified)	> 4 mM (inactive)
Cc1cc(N)n(C2CCOC(C)(C)C2)n1 (stereo unspecified)	> 4 mM (inactive)
O=C(NCc1ccco1)c1nc2ncccn2n1	> 4 mM (inactive)
c1cncc(C(N2CCOCC2)N2CCOCC2)c1	> 4 mM (inactive)
NC(=O)c1ccc(N2C(=O)CCC2=O)cc1Cl	> 4 mM (inactive)
CCn1cnc2cc([N+](=O)[O-])ccc2c1=O	> 4 mM (inactive)
CS(=O)(=O)N1CCN(C(=O)Cc2cccs2)CC1	> 4 mM (inactive)
CCCS(=O)(=O)N1CCN(c2ccccc2F)CC1	> 4 mM (inactive)
Cn1c(CO)nc2cc(N)ccc21	> 4 mM (inactive)
NC(=O)CSc1ccc(-c2ccco2)nn1	> 4 mM (inactive)
Oc1ccc(C(=S)N2CCCCC2)cc1Cl	> 4 mM (inactive)
Nc1nc2ncc(=O)[nH]c2c(=O)[nH]1	> 4 mM (inactive)
C/C=C(\C)C(=O)O[C@H]1C[C@@H](OC(C)=O)[C@@]2(C(=O)OC)CO[C@@H]3C2[C@]12CO[C@](O)(C(=O)OC)[C@H]2[C@](C)(C12O[C@@]1(C)[C@H]1C[C@@H]2OC2OC=C[C@@]21O)[C@@H]3O (stereo partly specified)	> 4 mM (inactive)
O=C1N=c2ccccc2=C1c1sc(=S)[nH]c1O	> 4 mM (inactive)
O=C1C2=C(SCCS2)C(=O)N1CCCO	> 4 mM (inactive)
O=P(c1ccccc1)(c1ccccc1)C1CCOCC1	> 4 mM (inactive)
NC(=O)C12CC3CC(C1)C(=O)C(C3)C2	> 4 mM (inactive)
CC(=O)CS(=O)(=O)c1ccccc1	> 4 mM (inactive)
c1ccn(Cc2ccncc2)c1	> 4 mM (inactive)

Structure (SMILES)	Kd
Cc1csc(NC(=O)c2cccs2)n1	> 4 mM (inactive)
Cc1cc(=O)[nH]c(N2CCN(Cc3ccccc3)CC2)n1	> 4 mM (inactive)
CC(=O)NC(=S)Nc1ccc(S(N)(=O)=O)cc1	> 4 mM (inactive)
CCC(=O)NC(=S)Nc1ccc(N2CCOCC2)cc1	> 4 mM (inactive)
Cc1sc2nc(SCC(=O)N(C)C)[nH]c(=O)c2c1C	> 4 mM (inactive)
CNC(=O)c1cc(C)c(-c2ccccc2)s1	> 4 mM (inactive)
Cc1cc(C)n(C/C=C/Cn2nc(C)cc2C)n1	> 4 mM (inactive)
CC(=O)NC(=S)Nc1ccccc1C	> 4 mM (inactive)
CC(CO)NC(=O)C1C=C2c3cccc4[nH]cc(c34)C[C@H]2N(C)C1 (stereo partly specified)	> 4 mM (inactive)
CCc1noc(C)c1C(=O)N1CCOCC1	> 4 mM (inactive)
O=P1(O)c2ccccc2Nc2ccccc21	> 4 mM (inactive)
O=S1(=O)C=C(Nc2ccccc2)CC1	> 4 mM (inactive)
CCOC(=O)C1=C(O)CCN(C)C1	> 4 mM (inactive)
CC(=O)Nc1ccn(-c2ccccc2)n1	> 4 mM (inactive)
Oc1ccccc1N=Cc1cccnc1	> 4 mM (inactive)
CC(C)(C)Cc1nc(-c2ccccn2)no1	> 4 mM (inactive)
CNC(=O)C1CCCN(S(C)(=O)=O)C1 (stereo unspecified)	> 4 mM (inactive)
Cc1cc(C)n2nc(Cc3ccccc3)nc2n1	> 4 mM (inactive)
COc1cccc(NC(=O)c2cnn(C)c2Cl)c1	> 4 mM (inactive)
NC(=O)c1ccc(Cl)c(N2C(=O)CCC2=O)c1	> 4 mM (inactive)
Cn1cnnc1Sc1ncnc(N)c1[N+](=O)[O-]	> 4 mM (inactive)
CN(C)Cc1nc2c([nH]1)c(=O)[nH]c(=O)n2C	> 4 mM (inactive)
O=C(O)C1CC2CC1CCC2O (stereo unspecified)	> 4 mM (inactive)
Cc1cc(C(=O)NN2CCOCC2)c(C)o1	> 4 mM (inactive)

Structure (SMILES)	Kd
O=c1[nH]cc(COCc2ccccc2)c(=O)[nH]1	> 4 mM (inactive)
COC(=O)c1sc(N)nc1C	> 4 mM (inactive)
O=C1C2C3C=CC(O3)C2C(=O)N1c1ccccc1 (stereo unspecified)	> 4 mM (inactive)
Nc1ccc(S(=O)(=O)Nc2nccs2)cc1	> 4 mM (inactive)
[O-][n+]1onc2c1CCc1c-2nn(-c2ccccc2)[n+]1[O-]	> 4 mM (inactive)
COc1cccc(C(=O)N2CCOCC2)c1	> 4 mM (inactive)
O=c1cc(-c2ccccc2)oc2cc(O)c(O)c(O)c12	> 4 mM (inactive)
Nc1ccc2nccnc2c1	> 4 mM (inactive)
C=C1C(=O)O[C@@H]2C3OC3(C)CC/C=C(\C)CC[C@@H]12 (stereo partly specified)	> 4 mM (inactive)
COc1cc(/C=C/C(=O)O)cc(OC)c1OC	> 4 mM (inactive)
COC(=O)[C@H]1[C@H]2C[C@H]3c4[nH]c5ccccc5c4CCN3C[C@H]2CC[C@@H]1O	> 4 mM (inactive)
CC(=O)c1cc2c(cc1O)OC(C)(C)C=C2	> 4 mM (inactive)
COc1ccc(-c2ccc(=O)n(CC(N)=O)n2)cc1	> 4 mM (inactive)
O=C1C2CCCCC2C(=O)N1c1nccs1 (stereo unspecified)	> 4 mM (inactive)
NC(=O)c1c[nH]c2ccccc12	> 4 mM (inactive)
CSc1nc(=O)[nH]c2c1CCC2	> 4 mM (inactive)
CN1CC(=O)Nc2ccc([N+](=O)[O-])cc2C1=O	> 4 mM (inactive)
COc1cc(S(=O)(=O)N(C)C)ccc1F	> 4 mM (inactive)
Cc1c(-c2ccccc2)[n+](=O)c(-c2ccco2)c(C)n1[O-]	> 4 mM (inactive)
C[C@@H]1O[C@@H](O[C@H]2[C@@H](Oc3cc(O)c4c(c3)O[C@H](c3ccc(O)cc3)CC4=O)O[C@H](CO)[C@@H](O)[C@@H]2O)[C@H](O)[C@H](O)[C@H]1O	> 4 mM (inactive)
O=c1cnnc(Nc2ccc(O)cc2)[nH]1	> 4 mM (inactive)
Cc1nc2ccc(C(=O)O)cc2nc1C	> 4 mM (inactive)
Cc1n[nH]c(=S)n1-c1ccc(C(=O)O)cc1	> 4 mM (inactive)
O=c1n(-c2cccc(Cl)c2)c(=O)n2n1CCC2	> 4 mM (inactive)

Structure (SMILES)	Kd
O=NN1C(=O)c2ccccc2C1=O	> 4 mM (inactive)
COc1c2c(cc3occ(-c4ccc5c(c4)OCO5)c(=O)c13)OC(C)(C)C=C2	> 4 mM (inactive)
COc1ccc(C(=O)NCC(=O)O)cc1	> 4 mM (inactive)
CC(=O)Oc1c(C)c(C)c2c(c1C)CCC(C)(CCCC(C)CCCC(C)CCCC(C)C)O2 (stereo unspecified)	> 4 mM (inactive)
NC(=O)c1cccnc1Oc1ccccc1	> 4 mM (inactive)
Nc1ccc(C(=O)NCC2CCCO2)cc1 (stereo unspecified)	> 4 mM (inactive)
Cc1cc(NC(=O)c2cnn3cccnc23)no1	> 4 mM (inactive)
COc1ccc(CN2CCOCC2)c(C)c1C	> 4 mM (inactive)
CC(=O)Nc1nnc(-c2ccccc2)o1	> 4 mM (inactive)
C[C@@H](N)[C@@H](O)c1ccccc1	> 4 mM (inactive)
N#Cc1nc(-c2cccs2)oc1N1CCOCC1	> 4 mM (inactive)
CC1Cc2nc(SCC(N)=O)n(C)c(=O)c2S1 (stereo unspecified)	> 4 mM (inactive)
O=C1c2cccnc2C(=O)N1Cc1ccco1	> 4 mM (inactive)
Cc1occc1C(=O)Nc1nnc(C2CCCCC2)s1	> 4 mM (inactive)
Oc1ccc(C2SCCS2)cc1	> 4 mM (inactive)
Cc1cccc(-n2c(N)cc(=O)[nH]c2=S)c1	> 4 mM (inactive)
COC(=O)C[C@H]1C(C)(C)C(=O)[C@@H]2CC3=C(CC[C@]4(C)C3=CC(=O)O[C@H]4c3ccoc3)C1(C)C2=O	> 4 mM (inactive)
O=C(Cc1ccc(F)cc1)Nc1ncccn1	> 4 mM (inactive)
O=CN1CCN(C(=O)c2ccccc2F)CC1	> 4 mM (inactive)
COc1ccc(-c2cc(=O)c3c(OC)c(OC)c(OC)c(OC)c3o2)cc1OC	> 4 mM (inactive)
O=S1(=O)CCC(Nc2ccccc2)C1 (stereo unspecified)	> 4 mM (inactive)
CNc1nnc(Cc2csc(N)n2)s1	> 4 mM (inactive)
Cc1ccc2cc(C(=O)O)ccc2n1	> 4 mM (inactive)
CN(C)N1C(=O)C2C3C=CC(O3)C2C1=O (stereo unspecified)	> 4 mM (inactive)

Structure (SMILES)	Kd
CN(C)C(=O)CSc1cccc2cccnc12	> 4 mM (inactive)
COc1ccc(-c2coc3c(OC)c(OC)cc(OC)c3c2=O)cc1	> 4 mM (inactive)
Oc1cc(O)c2c(c1)O[C@H](c1ccc(O)c(O)c1)[C@@H](O)C2	> 4 mM (inactive)
CC(=O)Nc1ccc(C(=O)N2CCOCC2)cc1Cl	> 4 mM (inactive)
O=c1ccn([C@@H]2O[C@H](COP(=O)(O)OP(=O)(O)OP(=O)(O)O)[C@@H](O)[C@H]2O)c(=O)[nH]1	> 4 mM (inactive)
CC(=O)NC(=S)Nc1cccc(C(=O)O)c1C	> 4 mM (inactive)
CN(C)S(=O)(=O)Nc1ccc(Br)cc1F	> 4 mM (inactive)
CN(C)C(=O)CCNS(=O)(=O)c1ccccc1	> 4 mM (inactive)
CC[C@H]1CN2CCc3cc(OC)c(OC)cc3C2C[C@@H]1CC1NCCc2cc(OC)c(OC)cc21 (stereo partly specified)	> 4 mM (inactive)
Fc1cccc(F)c1CN1CCN(c2ncccn2)CC1	> 4 mM (inactive)
O=C1CCCN1C(=O)CN1CCOCC1	> 4 mM (inactive)
COc1ccc2cc1Oc1ccc(cc1)C[C@H]1c3cc(c(OC)cc3CCN1C)Oc1c(OC)c(OC)cc3c1[C@H](C2)N(C)CC3	> 4 mM (inactive)
CC(C)(CO)NC(=O)c1ccccc1F	> 4 mM (inactive)
O=C(NC1CC1)c1ccccc1[N+](=O)[O-]	> 4 mM (inactive)
COc1ccc(-c2cc3nc4n(c(=O)c3s2)CCC4)cc1	> 4 mM (inactive)
C[C@@H]1CC[C@]2(C(=O)O)CC[C@]3(C)C(=CCC4[C@@]5(C)CC[C@H](O)C(C)(C)C5CC[C@]43C)C2[C@H]1C (stereo partly specified)	> 4 mM (inactive)
O=c1[nH]cc(NCc2ccccc2)c(=O)[nH]1	> 4 mM (inactive)
CCN(CC)S(=O)(=O)c1ccc(F)cc1	> 4 mM (inactive)
CCOC(=O)Cc1nc2ccccc2[nH]1	> 4 mM (inactive)
NC(c1ccccc1)c1ccccn1 (stereo unspecified)	> 4 mM (inactive)
